Measured values as given in ChEMBL document CHEMBL4732128, “Methylsulfanylpyridine based diheteroaryl isocombretastatin analogs as potent anti-proliferative agents” (Eur J Med Chem, 2021).
In brackets after ≈: the same amount, converted by molar mass. Activity calls are given as the source filed them. The rule behind the calls is not given here.

Experiments:
HT-29 [1] = test: Induction of cell cycle arrest in human HT-29 cells assessed as accumulation of cells at G0/G1 phase at 1 nM after 24 to 72 hrs by propidium iodide staining-based flow cytometric analysis; type: functional; settings: time 24-72 hrs
HL-60 [2] = test: Induction of cell cycle arrest in human HL-60 cells assessed as accumulation of cells at G2/M phase at 100 nM after 72 hrs by propidium iodide staining-based flow cytometric analysis; type: functional
HEK293 [3] = test: Induction of apoptosis in human HEK293 cells; type: cell-based
HT-29 [4] = test: Induction of cell cycle arrest in human HT-29 cells assessed as accumulation of cells at G2/M phase at 1 nM after 24 to 72 hrs by propidium iodide staining-based flow cytometric analysis; type: functional; settings: time 24-72 hrs
HT-29 [5] = test: Induction of cell cycle arrest in human HT-29 cells assessed as accumulation of cells at G2/M phase at 100 nM after 48 hrs by propidium iodide staining-based flow cytometric analysis; type: functional
HL-60 [6] = test: Induction of apoptosis in human HL-60 cells assessed as increase in cell accumulation at sub-G0/G1 phase at 100 nM incubated for 48 hrs by propidium iodide staining based flow cytometry; type: functional
HT-29 [7] = test: Induction of apoptosis in human HT-29 cells assessed as increase in cell accumulation at sub-G0/G1 phase at 100 nM incubated for 48 hrs by propidium iodide staining based flow cytometry; type: functional
HT-29 [8] = test: Induction of cell cycle arrest in human HT-29 cells assessed as sum of Sub-G0/G1 and G2/M population at 1 uM after 72 hrs by propidium iodide staining based flow cytometry; type: functional
HL-60 [9] = test: Induction of cell cycle arrest in human HL-60 cells assessed as accumulation of cells at S phase at 1 nM after 24 to 72 hrs by propidium iodide staining-based flow cytometric analysis; type: functional; settings: time 24-72 hrs
HL-60 [10] = test: Induction of cell cycle arrest in human HL-60 cells assessed as accumulation of cells at G2/M phase at 1 nM after 24 to 72 hrs by propidium iodide staining-based flow cytometric analysis; type: functional; settings: time 24-72 hrs
HeLa [11] = test: Antiproliferative activity against human HeLa cells assessed as inhibition of cell growth after 72 hrs by XTT assay; type: functional, cell-based
HeLa [12] = test: Induction of mitotic arrest in human HeLa cells assessed as increase in MPM-2 expression at 1 uM incubated for 24 to 48 hrs by Western blot analysis; type: functional, cell-based; settings: time 24-48 hrs
HeLa [13] = test: Induction of cell cycle arrest in human HeLa cells assessed as accumulation of cells at S phase at 1 nM after 24 to 72 hrs by propidium iodide staining-based flow cytometric analysis; type: functional; settings: time 24-72 hrs
HL-60 [14] = test: Induction of cell cycle arrest in human HL-60 cells assessed as accumulation of cells at G2/M phase at 100 nM after 48 hrs by propidium iodide staining-based flow cytometric analysis; type: functional
HeLa [15] = test: Induction of cell cycle arrest in human HeLa cells assessed as accumulation of cells at G2/M phase after 24 hrs by propidium iodide staining-based flow cytometric analysis; type: functional
HT-29 [16] = test: Induction of cell cycle arrest in human HT-29 cells assessed as sum of Sub-G0/G1 and G2/M population at 10 uM after 72 hrs by propidium iodide staining based flow cytometry; type: functional
HeLa [17] = test: Induction of cell cycle arrest in human HeLa cells assessed as accumulation of cells at Sub-G0/G1 phase at 1 nM after 24 to 72 hrs by propidium iodide staining-based flow cytometric analysis; type: functional; settings: time 24-72 hrs
HL-60 [18] = test: Induction of apoptosis in human HL-60 cells assessed as increase in cell accumulation at sub-G0/G1 phase at 100 nM incubated for 72 hrs by propidium iodide staining based flow cytometry; type: functional
HeLa [19] = test: Induction of apoptosis in human HeLa cells assessed as increase in cell accumulation at sub-G0/G1 phase at 100 nM incubated for 48 hrs by propidium iodide staining based flow cytometry; type: functional
[20] = Inhibition of bovine brain tubulin polymerization incubated for 30 mins by turbidimetric assay; type: tissue-based, Bos taurus
HT-29 [21] = test: Induction of cell cycle arrest in human HT-29 cells assessed as accumulation of cells at G2/M phase after 24 hrs by propidium iodide staining-based flow cytometric analysis; type: functional
HeLa [22] = test: Induction of cell cycle arrest in human HeLa cells assessed as accumulation of cells at G2/M phase at 100 nM after 48 hrs by propidium iodide staining-based flow cytometric analysis; type: functional
HT-29 [23] = test: Induction of cell cycle arrest in human HT-29 cells assessed as sum of Sub-G0/G1 and G2/M population at 1 uM after 48 hrs by propidium iodide staining based flow cytometry; type: functional
Tubulin (Homo sapiens) = Tubulin (Homo sapiens) (UniProt P68371+Q9H4B7+P0DPH7+P68366+Q13509+Q71U36+P04350+Q3ZCM7+P07437+P68363+Q9BQE3+Q6PEY2+Q13885+Q9BVA1+Q9BUF5); test: Induction of microtubule disruption in human HeLa cells at 1 uM measured after 24 hrs by immunofluorescence staining based confocal microscopic analysis; type: cell-based
HeLa [24] = test: Induction of cell cycle arrest in human HeLa cells assessed as accumulation of cells at G2/M phase at 1 nM after 24 to 72 hrs by propidium iodide staining-based flow cytometric analysis; type: functional; settings: time 24-72 hrs
HEK293 [25] = test: Induction of mitotic arrest in human HEK293 cells; type: cell-based
HeLa [26] = test: Induction of apoptosis in human HeLa cells assessed as increase in cell accumulation at sub-G0/G1 phase at 100 nM incubated for 72 hrs by propidium iodide staining based flow cytometry; type: functional
HT-29 [27] = test: Induction of cell cycle arrest in human HT-29 cells assessed as accumulation of cells at G2/M phase at 100 nM after 72 hrs by propidium iodide staining-based flow cytometric analysis; type: functional
HeLa [28] = test: Induction of apoptosis in human HeLa cells assessed as increase in cell accumulation at sub-G0/G1 phase at 100 nM incubated for 24 hrs by propidium iodide staining based flow cytometry; type: functional
HL-60 [29] = test: Induction of cell cycle arrest in human HL-60 cells assessed as accumulation of cells at Sub-G0/G1 phase at 1 nM after 24 to 72 hrs by propidium iodide staining-based flow cytometric analysis; type: functional; settings: time 24-72 hrs
HT-29 [30] = test: Induction of apoptosis in human HT-29 cells assessed as increase in cell accumulation at sub-G0/G1 phase at 100 nM incubated for 72 hrs by propidium iodide staining based flow cytometry; type: functional
HT-29 [31] = test: Induction of cell cycle arrest in human HT-29 cells assessed as accumulation of cells at Sub-G0/G1 phase at 1 nM after 24 to 72 hrs by propidium iodide staining-based flow cytometric analysis; type: functional; settings: time 24-72 hrs
HT-29 [32] = test: Induction of cell cycle arrest in human HT-29 cells assessed as sum of Sub-G0/G1 and G2/M population at 10 uM after 48 hrs by propidium iodide staining based flow cytometry; type: functional
HeLa [33] = test: Induction of cell cycle arrest in human HeLa cells assessed as accumulation of cells at G2/M phase at 100 nM after 24 hrs by propidium iodide staining-based flow cytometric analysis; type: functional
HeLa [34] = test: Induction of apoptosis in human HeLa cells assessed as accumulation of cells at sub-G0/G1 phase after 24 hrs by propidium iodide staining-based flow cytometric analysis; type: functional, cell-based
[35] = Aqueous solubility of the compound in pH 7.0 phosphate buffer at 2 mg incubated for 72 hrs by shake flask method; type: physicochemical
HT-29 [36] = test: Induction of cell cycle arrest in human HT-29 cells assessed as accumulation of cells at G2/M phase at 100 nM after 24 hrs by propidium iodide staining-based flow cytometric analysis; type: functional
HT-29 [37] = test: Induction of cell cycle arrest in human HT-29 cells assessed as accumulation of cells at S phase at 1 nM after 24 to 72 hrs by propidium iodide staining-based flow cytometric analysis; type: functional; settings: time 24-72 hrs
HL-60 [38] = test: Antiproliferative activity against human HL-60 cells assessed as inhibition of cell growth after 72 hrs by XTT assay; type: functional, cell-based; settings: HL-60, 72 h
HeLa [39] = test: Induction of apoptosis in human HeLa cells assessed as increase in cleaved PARP level at 1 uM after 24 to 48 hrs by Western blot analysis; type: functional, cell-based; settings: time 24-48 hrs
HeLa [40] = test: Induction of cell cycle arrest in human HeLa cells assessed as accumulation of cells at G2/M phase at 100 nM after 72 hrs by propidium iodide staining-based flow cytometric analysis; type: functional
HL-60 [41] = test: Induction of cell cycle arrest in human HL-60 cells assessed as accumulation of cells at G2/M phase at 100 nM after 24 hrs by propidium iodide staining-based flow cytometric analysis; type: functional
HeLa [42] = test: Induction of cell cycle arrest in human HeLa cells assessed as accumulation of cells at G0/G1 phase at 1 nM after 24 to 72 hrs by propidium iodide staining-based flow cytometric analysis; type: functional; settings: time 24-72 hrs
HT-29 [43] = test: Antiproliferative activity against human HT-29 cells assessed as inhibition of cell growth after 72 hrs by XTT assay; type: functional, cell-based; settings: HT-29, 72 h
HL-60 [44] = test: Induction of cell cycle arrest in human HL-60 cells assessed as accumulation of cells at G0/G1 phase at 1 nM after 24 to 72 hrs by propidium iodide staining-based flow cytometric analysis; type: functional; settings: time 24-72 hrs

## CSc1cc(C(=NO)c2ccc3c(c2)c(C#N)cn3C)cc(Cl)n1
HT-29 [1]
  Activity: inactive
HL-60 [2]
  Activity: 23.3%
HEK293 [3]
  Activity: Non-Toxic
HT-29 [4]
  Activity: inactive
HT-29 [5]
  Activity: 54.9%
HL-60 [6]
  Activity: 22.7%
HT-29 [7]
  Activity: 28.1%
HT-29 [8]
  Activity: 39.1%
HL-60 [9]
  Activity: inactive
HL-60 [10]
  Activity: inactive
HeLa [11]
  IC50: 57 nM
HeLa [12]
  Activity: Active
HeLa [13]
  Activity: inactive
HL-60 [14]
  Activity: 39.7%
HeLa [15]
  Activity: Active
HT-29 [16]
  Activity: 40.7%
HeLa [17]
  Activity: inactive
HL-60 [18]
  Activity: 33.1%
HeLa [19]
  Activity: 35.9%
[20]
  IC50: 200 nM
HT-29 [21]
  Activity: Active
HeLa [22]
  Activity: 46.9%
HT-29 [23]
  Activity: 91.1%
Tubulin (Homo sapiens)
  Activity: Active
HeLa [24]
  Activity: inactive
HEK293 [25]
  Activity: Toxic
HeLa [26]
  Activity: 83.3%
HT-29 [27]
  Activity: 4.7%
HeLa [28]
  Activity: 15.7%
HL-60 [29]
  Activity: inactive
HT-29 [30]
  Activity: 64.7%
HT-29 [31]
  Activity: inactive
HT-29 [32]
  Activity: 92.1%
HeLa [33]
  Activity: 73.2%
HeLa [34]
  Activity: Active
[35]
  solubility thermodynamic at 72 h: 5.1 µg/mL (≈ 14.3 µM)
HT-29 [36]
  Activity: 84.4%
HT-29 [37]
  Activity: inactive
HL-60 [38]
  IC50: 93 nM
HeLa [39]
  Activity: Active
HeLa [40]
  Activity: 4.6%
HL-60 [41]
  Activity: 77.4%
HeLa [42]
  Activity: inactive
HT-29 [43]
  IC50: 195 nM
HL-60 [44]
  Activity: inactive
